Assay results from US20230058623A1, “NOVEL HETEROARYL-TRIAZOLE COMPOUNDS AS PESTICIDES” (Bayer Aktiengesellschaft, priority 2019, published 2023).

How the values were obtained:
Format in all cases: in vivo
[1] = tested on: Rhipicephalus (Boophilus) microplus larvae (strain Parkhurst, resistant against synthetic pyrethroids); test: Rhipicephalus (Boophilus) microplus in-vitro contact test, larval cattle tick; conditions: after 48 hours, read-out: activity (efficacy: larvae dead or moribund); for pest or weed control at 1 µg/cm2, 100 g/ha: application rate 1 μg/cm^2 (=100 g/ha); for pest or weed control at 5 µg/cm2, 500 g/ha: application rate 5 μg/cm^2 (=500 g/ha)
Summary of the method: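 Pyrethroid-resistant Parkhurst larvae, 20–50 per tube, were kept 48 h at 27 °C and 85% relative humidity in glass tubes whose inner walls carried a dried acetone film of compound (900 ppm giving 5 μg/cm^2). Dead or moribund larvae, judged by loss of negative geotactic behavior, set percent efficacy.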

[2] = tested on: adult engorged female ticks (Rhipicephalus microplus); test: Rhipicephalus (Boophilus) microplus injection test; conditions: 168 h, application rate 4 μg/tick, egg deposition after 7 days, read-out: activity (efficacy: infertile eggs)
Method: Rhipicephalus (Boophilus) microplus—Injection Test
(§1) Solvent: dimethyl sulfoxide
To produce a suitable preparation of active compound, 10 mg of active compound are dissolved in 0.5 mL solvent, and the concentrate is diluted with solvent to the desired concentration.
Five adult engorged female ticks (Rhipicephalus microplus) are injected with 1 μL compound solution into the abdomen. The ticks are transferred into replica plates and incubated in a climate chamber.
After 7 days egg deposition of fertile eggs is monitored. Eggs where fertility is not visible are stored in a climate chamber till hatching after about 42 days. An efficacy of 100% means all eggs are infertile; 0% means all eggs are fertile.

[3] = tested on: adult unfed cat fleas (Ctenocephalides felis); test: Ctenocephalides felis oral test; conditions: 48 h, read-out: activity (mortality)
Method: Ctenocephalides felis—Oral Test
as §1
To produce a suitable preparation of active compound, 10 mg of active compound are dissolved in 0.5 mL solvent, and the concentrate is diluted with citrated cattle blood to the desired concentration.
Approximately 20 adult unfed cat fleas (Ctenocephalides felis) are placed in a flea chamber whose top and bottom is covered with gauze. A chamber whose bottom is sealed with parafilm, is filled with the blood-compound solution and placed on top of the flea chamber, so that the fleas can suck the blood. The blood chamber is heated to 37° C. whereas the flea chamber is kept at room temperature.
After 2 days mortality in % is determined. 100% means all the fleas have been killed; 0% means none of the fleas have been killed.

[4] = tested on: larvae of the banded cucumber beetle (Diabrotica balteata); test: Diabrotica balteata spray test; conditions: 168 h, application rate 100 g/ha (=32 μg/well), after 7 days, wheat seeds, read-out: activity (efficacy: seedlings grown)
Summary of the method: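 Efficacy (%) read 7 days after infesting treated seedlings with 10-20 banded cucumber beetle larvae, 100% meaning growth as in uninfected untreated control and 0% no growth. Test solutions in water containing 1000 ppm emulsifier were sprayed onto wheat seeds germinated for 1 day on agar.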

[5] = tested on: fall armyworm larvae (Spodoptera frugiperda); test: Spodoptera frugiperda spray test; conditions: 168 h, application rate 100 g/ha, after 7 days, maize leaf sections
Summary of the method: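 Read-out: % larval mortality at day 7, where 100% means all killed and 0% none killed. Compound diluted in water with 1000 ppm emulsifier, sprayed onto Zea mays leaf sections; dried sections then infested with S. frugiperda larvae.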

[6] = tested on: adult brown dog ticks (Rhipicephalus sanguineus); test: Rhipicephalus sanguineus in-vitro contact test, adult brown dog ticks; conditions: application rate 5 μg/cm^2 (=500 g/ha), after 48 hours, read-out: activity (efficacy: ticks dead or moribund)
Summary of the method: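 Read-out: % efficacy as dead or moribund ticks, judged 48 h after exposure by failure to climb away from a 45-50° C heating plate within 5 min. Tubes were coated with acetone solution (900 ppm = 5 μg/cm^2 surface dose) and held 5-10 adults each at room temperature.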

[7] = tested on: green peach aphid (Myzus persicae); test: Myzus persicae oral test; conditions: 120 h, read-out: activity (mortality)
Summary of the method: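 Five-day oral feeding assay measuring percent mortality of a mixed aphid population that draws compound-containing sugared IPL41 medium through sealing parafilm; the test preparation derives from 1 part compound per 100 parts acetone, diluted with water.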

[8] = tested on: adult cat fleas (Ctenocephalides felis); test: Ctenocephalides felis in-vitro contact test, adult cat flea; conditions: application rate 5 μg/cm^2 (=500 g/ha), after 48 hours, read-out: activity (efficacy: fleas dead or moribund)
Summary of the method: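 After 48 h of room-temperature exposure in tubes whose walls carried dried compound residue (5 μg/cm^2, from 900 ppm acetone solution), adult cat fleas (5-10 per tube) were heat-challenged at 45-50° C up to 5 min. Fleas unable to climb away were counted dead or moribund, expressed as % efficacy.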

[9] = tested on: green peach aphid (Myzus persicae); test: Myzus persicae spray test; conditions: foliar, 120 h, application rate 100 g/ha, after 5 days, Chinese cabbage leaf disks, read-out: activity (mortality)
Summary of the method: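 Percent kill was recorded 5 days after spraying. Test solutions, prepared with solvent and diluted in 1000 ppm emulsifier water, were applied to Brassica pekinensis leaf disks carrying mixed-instar green peach aphids.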

[10] = tested on: larvae of the southern green stink bug (Nezara viridula); test: Nezara viridula spray test; conditions: 96 h, after 4 days, barley plants; for mortality at 100 g/ha: application rate 100 g/ha
Method: Nezara viridula—Spray Test
To produce a suitable preparation of active compound, 1 part by weight of active compound is mixed with the stated amount of solvent, and the concentrate is diluted with water, containing an emulsifier concentration of 1000 ppm, to the desired concentration. Further test concentrations are prepared by dilution with emulsifier containing water.
Barley plants (Hordeum vulgare) are sprayed with a test solution containing the desired concentration of the active ingredient and are infested with larvae of the southern green stink bug (Nezara viridula).
After 4 days mortality in % is determined. 100% means all the stink bugs have been killed; 0% means none of the stink bugs have been killed.

[11] = tested on: adult mosquitoes Aedes aegypti strain MONHEIM; test: Aedes aegypti test (AEDSAE surface treatment & contact assay); conditions: surface concentration 20 mg/m^2, exposure 30 minutes, 24 hours after contact, read-out: efficacy (mortality)
Method: Aedes aegypti Test (AEDSAE Surface Treatment & Contact Assay)
(§2) Solvent: Aceton+2000 ppm rapeseed oil methyl ester (RME)
In order to produce a sufficient, active ingredient containing solution it is necessary to solve the test compound in the solvent-mix (acetone at 2 mg/ml/RME 2000 ppm). This solution is pipetted onto a glazed tile and after evaporation of the acetone, adult mosquitoes of the species Aedes aegypti strain MONHEIM are placed onto the dried surface. The exposure time is 30 minutes.
(§3) Mortality in percent (%) is determined 24 hours after contact of the insects to the treated surface. 100% mortality means that all tested insects are dead, whereas 0% means that no insect died.

[12] = tested on: adult flies Musca domestica strain WHO-N; test: Musca domestica test (MUSCDO surface treatment & contact assay); conditions: 24 hours after contact, read-out: efficacy (mortality); for mortality at 20 mg/m2: surface concentration 20 mg/m^2, exposure 30 minutes
Method: Musca domestica Test (MUSCDO Surface Treatment & Contact Assay)
as §2
In order to produce a sufficient, active ingredient containing solution it is necessary to solve the test compound in the solvent-mix (acetone at 2 mg/ml/RME 2000 ppm). This solution is pipetted onto a glazed tile and after evaporation of the acetone, adult flies of the species Musca domestica strain WHO-N are placed onto the dried surface. The exposure time is 30 minutes.
as §3

SMILES | pest or weed control at 1 µg/cm2, 100 g/ha [1] [%] | pest or weed control at 5 µg/cm2, 500 g/ha [1] [%] | pest or weed control at 0.004 mg [2] [%] | mortality at 100 ppm [3] [%] | pest or weed control at 32 µg/disc, 100 g/ha [4] [%] | mortality at 100 g/ha [5] [%] | pest or weed control at 5 µg/cm2, 500 g/ha [6] [%] | mortality at 4 ppm [7] [%] | pest or weed control at 5 µg/cm2 [8] [%] | mortality at 100 g/ha [9] [%] | mortality at 100 g/ha [10] [%] | mortality at 20 mg/m2 [11] [%] | mortality at 20 mg/m2 [12] [%] | mortality at 20 ppm [7] [%] | mortality at 500 g/ha ([10]; application rate 500 g/ha, read-out: activity (mortality)) [%] | mortality at 4 mg/m2 ([12]; surface concentration 4 mg/m^2, exposure 30 minutes) [%]
CC(NC(=O)c1cc(C(F)(F)F)cc(C(F)(F)F)c1)c1nc(I)nn1-c1ccc(C(=O)N2CCOCC2)cn1 (racemic) [Example I-84, N-[1-[5-iodo-2-[5-(morpholine-4-carbonyl)-2-pyridyl]-1,2,4-triazol-3-yl]ethyl]-3,5-bis(trifluoromethyl)benzamide] | 100 | 100 | 100 | 100 | 100 | 100 |  |  |  |  |  |  |  |  |  | 
C[C@H](NC(=O)c1cc(C(F)(F)F)cc(C(F)(F)F)c1)c1ncnn1-c1cc(C(=O)N2CCOCC2)ccn1 [Example I-3] | 100 | 100 |  | 90 |  |  | 100 | 90 |  |  |  |  |  |  |  | 
C[C@H](NC(=O)c1cc(C(F)(F)F)cc(C(F)(F)F)c1)c1ncnn1-c1ccc(C(=O)N(C)C2COC2)cn1 [Example I-112] | 100 | 100 |  |  |  | 100 |  | 70 | 90 | 100 | 100 | 80 to 100 | 80 to 100 |  |  | 
Cc1nc([C@H](C)NC(=O)c2cc(C(F)(F)F)cc(C(F)(F)F)c2)n(-c2ccc(C(=O)N3CCOC[C@H]3C)cn2)n1 [Example I-72] | 100 | 100 |  |  | 100 | 100 | 100 |  | 100 |  |  |  | 80 to 100 |  |  | 
CC(NC(=O)c1cc(Br)cc(Br)c1)c1nc(Cl)nn1-c1ccc(C(=O)N2CCOCC2)cn1 (racemic) [Example I-87, 3,5-Dibromo-N-[1-[5-chloro-2-[5-(morpholine-4-carbonyl)-2-pyridyl]-1,2,4-triazol-3-yl]ethyl]benzamide] | 100 | 90 | 100 | 90 |  |  |  |  |  |  |  |  |  |  |  | 
CC(NC(=O)c1cc(Cl)cc(OC(F)(F)F)c1)c1nc(C(F)F)nn1-c1ccc(C(=O)N2CCOCC2)cn1 (centres unmarked) [Example I-59] |  |  | 100 | 100 | 80 |  |  |  |  |  |  |  |  | 100 |  | 
C[C@@H]1CN(C(=O)c2ccc(-n3nc(C4CC4)nc3[C@H](C)NC(=O)c3cc(C(F)(F)F)cc(C(F)(F)F)c3)nc2)C[C@H](C)O1 [Example I-89] | 100 | 100 |  |  | 100 | 100 | 100 |  | 100 |  |  |  | 80 to 100 |  | 100 | 
C[C@H](NC(=O)c1cc(Cl)cc(C(F)(F)F)c1)c1ncnn1-c1ccc(N2CC(F)(F)C2)cn1 [Example I-108] |  |  |  | 100 |  |  |  |  |  |  |  |  |  |  |  | 
Cc1nc([C@H](C)NC(=O)c2cc(C(F)(F)F)cc(C(F)(F)F)c2)n(-c2ccc(C(=O)N3CCO[C@H](C)C3)cn2)n1 [Example I-70] | 100 | 100 |  |  | 100 | 100 | 100 | 100 | 100 | 90 | 90 | 80 to 100 | 80 to 100 |  |  | 80 to 100
C[C@H](NC(=O)c1cc(C(F)(F)F)cc(C(F)(F)F)c1)c1ncnn1-c1ccc(C(=O)N2CCOC[C@@H]2C)cn1 [Example I-67] | 100 | 100 |  |  | 100 | 100 |  | 100 | 100 |  |  | 80 to 100 | 80 to 100 |  |  | 
C[C@H](NC(=O)c1cc(Cl)cc(C(F)(F)F)c1)c1ncnn1-c1ccc(C(=O)N2CCN(C)CC2)cn1 [Example I-42] | 100 |  | 100 | 80 | 80 |  |  |  |  |  |  |  |  |  |  | 
